In patent publication US10449146B2, “Methods of treating parkinson's disease by administration of apomorphine to an oral mucosa” (Sunovion Pharmaceuticals Inc., priority 2015, dated 2019):
Like-named read-outs stand apart in the source and are kept apart here.

Columns and labels:
[1] = Plasma apomorphine concentration in Parkinson's patients, minimum effective concentration; format: in vivo, human
Description: A range of doses was used. Over half of the patients needed only the lower two doses (Films J and K), and 80% used Film I, J, or K (FIG. 8; “apomorphine dose” in this Figure indicates the weight of apomorphine hydrochloride in the administered pharmaceutical unit dosage form). […] Eight patients had pharmacokinetic analyses; six of these eight patients have achieved “on” state. Mean plasma apomorphine concentration upon turning on was 2.64 ng/mL for the six patients. […] Responders had large, clinically meaningful UPDRS Part III changes (motor improvement) at all time-points while the non-responders had little motor improvement but not enough to convert from OFF to ON (FIG. 9B).

[2] = intravenous infusion, subjects having Parkinson's disease; cited from earlier work

CN1CCc2cccc3c2[C@H]1Cc1ccc(O)c(O)c1-3 [apomorphine]
minimum effective concentration ([1]; administered to oral mucosa): about 2.64 ng/mL
Mean plasma apomorphine concentration upon turning on ([1]; six patients who achieved 'on' state, film to oral mucosa): 2.64 ng/mL
average plasma apomorphine concentration ([1]; two non-responders, all doses, each time point): < 2.64 ng/mL
minimum effective concentration [2]: 4.7 ng/mL
